In patent US6720306B2, “Tetrapartate prodrugs” (priority 1997, dated 2004):

Test system: human ovarian carcinoma (A2780)
Test: Efficacy of PEG-leu-doxorubicin analogs against subcutaneous human ovarian carcinoma (A2780) xenograft in nude mice
Type: in vivo
Conditions: intravenous Qd7 × 3, 30 mg/kg/dose
Description: The efficacy of PEG-leu-doxorubicin analogs against a subcutaneous human ovarian carcinoma (A2780) injected into nude mice was determined as follows.
Following at least one week of acclimation, tumors were established in nude mice by injecting 1×10^6 […] harvested A2780 ovarian carcinoma cells in a single subcutaneous site, on the left axillary flank region of each animal. The tumor injection site was observed twice weekly and measured once palpable. The tumor volume for each mouse was determined by measuring two dimensions with calipers and calculated using the formula: tumor volume=(length×width^2)/2). When tumors reached the average volume of approximately 80 mm^3, the mice were divided into their respective experimental groups, which consists of vehicle (20 m M sodium phosphate in 0.6% NaCl) controls, Leu-Doxorubicin, compound 1 of Example 1, compound 10 of Example 4, and compound 12 of Example 5). The mice were sorted to evenly distribute tumor size, grouped into 6 mice/cage, and ear punched for permanent identification. Drugs were dosed intravenously via the tail vein once per week for three weeks (Qd7×3). Mouse weight and tumor sizes were measured at the beginning of study and twice weekly through week 5.
The overall growth of tumors was calculated as the mean tumor volume at one week following the end of the treatment. A percent treatment over control (T/C) value was also calculated when the control group's median tumor size reached approximately 800-1100 mm^3 and again at one week following treatment. The T/C value in percent is a non-quantitative indication of anti-tumor effectiveness.

## COc1cccc2c1C(=O)c1c(O)c3c(c(O)c1C2=O)C[C@@](O)(C(=O)CO)C[C@@H]3O[C@H]1C[C@H](NC(=O)[C@@H](N)CC(C)C)[C@H](O)[C@H](C)O1 [Leu-Dox, Leucine-doxorubicin]
A2780 xenograft in nude mice, established tumors ~80 mm^3, n = 6/group, day 21
  Tumor Volume (mean ± sem) Day 21: 659 ± 173 mm^3
Median tumor volume treatment vs control one week after final dosage (day 21)
  T/C (%) At Day 21: 19.7%
Median tumor volume treatment vs control when control median reached approximately 1000 mm^3
  T/C (%) At 1000 mm^3: 26.3%
